Laboratory results taken from patent US8252751B2, “Organic compounds” (Novartis AG, priority 2007, dated 2012).
Values joined by “and” are separate entries in the source; they are usually repeats but may differ in a detail not shown here. Equal entries are not always repeated. Where two headings read alike, the source gives them in different places.

Experiments:
Assay type in all cases: biochemical
human PEP = biological target: T1, human PEP (Homo sapiens, UniProt P48147); experiment: PEP (prolyl-endopeptidase) IC50 assay, Z-Gly-Pro-AMC fluorescence intensity
T1 construct: human PEP covering amino acid 1-710; made in house; host or cells: Pichia pastoris
T1 sequence (P48147 1-710): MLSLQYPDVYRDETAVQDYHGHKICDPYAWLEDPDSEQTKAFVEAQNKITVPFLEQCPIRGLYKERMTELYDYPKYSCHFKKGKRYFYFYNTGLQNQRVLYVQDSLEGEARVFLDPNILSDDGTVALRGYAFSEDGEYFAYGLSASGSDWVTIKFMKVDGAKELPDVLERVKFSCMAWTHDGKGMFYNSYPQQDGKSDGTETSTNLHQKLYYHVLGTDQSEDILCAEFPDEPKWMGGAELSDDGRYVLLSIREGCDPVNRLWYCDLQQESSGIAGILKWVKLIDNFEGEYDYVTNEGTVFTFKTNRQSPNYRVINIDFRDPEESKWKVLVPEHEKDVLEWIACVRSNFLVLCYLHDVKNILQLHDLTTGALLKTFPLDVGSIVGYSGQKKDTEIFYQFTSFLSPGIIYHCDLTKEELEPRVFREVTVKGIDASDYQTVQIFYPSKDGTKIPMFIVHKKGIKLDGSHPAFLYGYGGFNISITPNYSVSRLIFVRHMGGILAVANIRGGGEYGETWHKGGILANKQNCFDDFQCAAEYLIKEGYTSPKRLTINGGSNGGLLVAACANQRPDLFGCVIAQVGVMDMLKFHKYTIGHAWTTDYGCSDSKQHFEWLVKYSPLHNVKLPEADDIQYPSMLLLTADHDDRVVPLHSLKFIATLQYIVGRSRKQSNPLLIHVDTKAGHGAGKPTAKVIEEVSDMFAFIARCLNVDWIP
Excerpt: (§1) For fluorescence intensity (FI) measurements with AMC as dye, an Ultra Evolution reader (TECAN, Maennedorf, Switzerland) was used. The instrument was equipped with a combination of a 350 nm (20 nm bandwidth) and a 500 nm (25 nm bandwidth) bandpath filter for fluorescence excitation and emission acquisition, respectively. To increase the signal:background ratio, an appropriate dichroic mirror was employed. All filters and the dichroic mirror were purchased from TECAN.
(§2) The data from the independent assay runs was averaged and plotted using program of Origin 7.5SR6 (OriginLab Corporation, Northampton, Mass., USA). Origin's built-in non-linear regression routine was used to fit the averaged data to the ‘logistics’ function y=A2+(A1−A2)/(1+(x/IC50)^p) (Equation 1) where y is the %-inhibition at the inhibitor concentration, x. A1 is the lowest inhibition value, i.e. 0%, and A2 the maximum inhibition value, i.e. 100%. The exponent, p, is the Hill coefficient. B. Determination of IC50 Values […]
(§3) For the determination of IC50 values, the assays were performed at room temperature in 384-well plates. All final assay volumes were 30 μl. Test compounds were dissolved in 90% (v/v) DMSO/water and diluted in water (containing 0.05% (w/v) CHAPS) to 3-times the desired assay concentration. For each assay, 10 μl water/CHAPS (±test compound) were added per well, followed by 10 μl protease solution (diluted with assay buffer; for final assay concentration cf. § Assay conditions). After 1 hour of incubation at room temperature, the reaction was started by addition of 10 μl substrate solution (for final concentrations cf. § Assay conditions). […] The effect of the compound on the enzymatic activity was obtained from the linear progress curves and determined from two readings, the first one taken directly after the addition of substrate (t=0 min) and the second one after 1 hour (t=60 min). The IC50 value was calculated from the plot of percentage of inhibition vs. inhibitor concentration using non-linear regression analysis software (XLfit, Vers. 4.0; ID Business Solution Ltd., Guildford, Surrey, UK). […]

[1] = biological target: T2, endogenous human DPP-IV from plasma sample (Homo sapiens, UniProt P27487); experiment: human plasma DPP-IV IC50 assay, (H-Ala-Pro)2-Rh110 fluorescence intensity; conditions: for IC50: 50% plasma
T2 construct: endogenous human DPP-IV from plasma sample, male donors; from tissue; host or cells: human blood plasma, male donors, diluted to 50% plasma content
Excerpt: FI measurements using a Rh110 dye were done with a Safire2 reader (TECAN, Maennedorf, Switzerland). The Safire2 is a monochomator-based instrument and wavelengths of 485 nm and 535 nm were taken for fluorescence excitation and emission acquisition, respectively. The bandwidths were set to 20 nm in both the excitation and the emission path.
as §2, §3

human DPP-8 = biological target: T3, human DPP-8 (Homo sapiens, UniProt Q6V1X1); experiment: DPP-8 (dipeptidyl-peptidase 8) IC50 assay, Gly-Pro-AMC fluorescence intensity
T3 construct: human DPP-8 covering amino acid 1-882; made in house; host or cells: insect cells (baculovirus expression system)
Excerpt: as §1, §2
(§4) For the determination of IC50 values, the assays were performed at room temperature in 384-well plates. All final assay volumes were 30 μl. Test compounds were dissolved in 90% (v/v) DMSO/water and diluted in water (containing 0.05% (w/v) CHAPS) to 3-times the desired assay concentration. For each assay, 10 μl water/CHAPS (±test compound) were added per well, followed by 10 μl protease solution (diluted with assay buffer; for final assay concentration cf. § Assay conditions). After 1 hour of incubation at room temperature, the reaction was started by addition of 10 μl substrate solution (for final concentrations cf. § Assay conditions). The eleven final compound concentrations were either 0.9 nM, 3 nM, 9 nM, 30 nM, 90 nM, 300 nM, 900 nM, 3 μM, 9 μM, 30 μM and 90 μM or 3 nM, 10 nM, 30 nM, 100 nM, 300 nM, 1 μM, 3 μM, 10 μM, 30 μM, 100 μM and 300 μM. The effect of the compound on the enzymatic activity was obtained from the linear progress curves and determined from two readings, the first one taken directly after the addition of substrate (t=0 min) and the second one after 1 hour (t=60 min). The IC50 value was calculated from the plot of percentage of inhibition vs. inhibitor concentration using non-linear regression analysis software (XLfit, Vers. 4.0; ID Business Solution Ltd., Guildford, Surrey, UK).
(§5) 4.—DPP-8 (dipeptidyl-peptidase 8) enzyme: human DPP-8 covering amino acid 1-882; expressed in and purified from insect cells (baculovirus expression system) substrate: Gly-Pro-AMC, purchased from Bachem (www.bachem.com), catalogue number I-1225 enzyme concentration: 0.05 nM substrate concentration: 10 μM assay buffer: 25 mM Tris, pH 7.4, 140 mM NaCl, 10 mM KCl, 0.05% (w/v) CHAPS

human FAP = biological target: T4, human FAP (Homo sapiens, UniProt Q12884); experiment: FAP (fibroblast activation protein, alpha) IC50 assay, Z-Gly-Pro-AMC fluorescence intensity
T4 construct: human FAPa covering amino acid 27-760 excluding the cytoplasmic and transmebrane domains; made in house; host or cells: insect cells (baculovirus expression system)
T4 sequence (Q12884 27-760): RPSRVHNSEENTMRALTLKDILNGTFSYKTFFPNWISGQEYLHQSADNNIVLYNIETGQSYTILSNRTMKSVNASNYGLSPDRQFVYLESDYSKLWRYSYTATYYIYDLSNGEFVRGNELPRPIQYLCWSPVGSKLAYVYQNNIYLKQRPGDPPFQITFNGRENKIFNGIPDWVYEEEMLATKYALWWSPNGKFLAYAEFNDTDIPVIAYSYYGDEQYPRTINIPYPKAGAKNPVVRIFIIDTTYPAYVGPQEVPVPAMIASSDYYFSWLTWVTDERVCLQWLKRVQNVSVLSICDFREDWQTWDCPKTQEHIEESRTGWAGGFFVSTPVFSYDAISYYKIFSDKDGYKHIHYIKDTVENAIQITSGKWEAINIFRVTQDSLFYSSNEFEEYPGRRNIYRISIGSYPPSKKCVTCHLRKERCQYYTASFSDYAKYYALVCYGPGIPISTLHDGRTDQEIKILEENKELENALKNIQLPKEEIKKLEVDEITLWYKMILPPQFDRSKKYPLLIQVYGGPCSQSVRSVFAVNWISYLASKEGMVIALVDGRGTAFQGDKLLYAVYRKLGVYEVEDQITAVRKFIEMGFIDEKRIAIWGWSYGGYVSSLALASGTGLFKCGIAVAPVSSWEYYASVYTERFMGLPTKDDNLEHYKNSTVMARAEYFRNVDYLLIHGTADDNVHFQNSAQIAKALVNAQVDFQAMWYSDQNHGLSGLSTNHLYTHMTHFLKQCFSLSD
Excerpt: as §1
The data from the independent assay runs was averaged and plotted using program of Origin 7.5SR6 (OriginLab Corporation, Northampton, Mass., USA). Origin's built-in non-linear regression routine was used to fit the averaged data to the ‘logistics’ function y=A2+(A1−A2)/(1+(x/IC50)^p) (Equation 1) where y is the %-inhibition at the inhibitor concentration, x. A1 is the lowest inhibition value, i.e. 0%, and A2 the maximum inhibition value, i.e. 100%. The exponent, p, is the Hill coefficient. B. Determination of IC50 Values
as §3

human DPP-9 = biological target: T5, human DPP-9 (Homo sapiens, UniProt Q86TI2); experiment: DPP-9 (dipeptidyl-peptidase 9) IC50 assay, Gly-Pro-AMC fluorescence intensity
T5 construct: human DPP-9 covering amino acid 1-863; made in house; host or cells: Pichia pastoris
Excerpt: as §1, §2, §4
5.—DPP-9 (dipeptidyl-peptidase 9) enzyme: human DPP-9 covering amino acid 1-863; expressed in and purified from Pichia pastoris substrate: Gly-Pro-AMC, purchased from Bachem (www.bachem.com), catalogue number I-1225 enzyme concentration: 1 nM substrate concentration: 10 μM assay buffer: 25 mM Tris, pH 7.4, 140 mM NaCl, 10 mM KCl, 0.05% (w/v) CHAPS

human DPP-IV = biological target: T6, human DPP-IV (Homo sapiens, UniProt P27487); experiment: DPP-IV (dipeptidyl peptidase IV) IC50 assay, Gly-Pro-AMC fluorescence intensity
T6 construct: human DPP-IV covering amino acid 39-766; made in house; host or cells: insect cells (baculovirus expression system)
Excerpt: as §1, §2, §4
as §5, with “2.—DPP-IV (dipeptidyl peptidase IV) enzyme:” for “4.—DPP-8 (dipeptidyl-peptidase 8) enzyme:”, “human DPP-IV” for “human DPP-8”, “acid 39-766;” for “acid 1-882;”, “concentration: 0.01” for “concentration: 0.05”

human DPP-2 = biological target: T7, human DPP-2 (Homo sapiens, UniProt Q9UHL4); experiment: DPP-2 (dipeptidyl peptidase 2) IC50 assay, Nle-Pro-AMC fluorescence intensity
T7 construct: human DPP-2 covering amino acid 30-492; made in house; host or cells: insect cells (baculovirus expression system)
Excerpt: as §1
as §2, with “x.” for “x. A1 is the lowest inhibition value, i.e. 0%, and A2 the maximum inhibition value, i.e. 100%. The exponent, p, is the Hill coefficient. B. Determination of IC50 Values”
For the determination of IC50 values, the assays were performed at room temperature in 384-well plates. […] The effect of the compound on the enzymatic activity was obtained from the linear progress curves and determined from two readings, the first one taken directly after the addition of substrate (t=0 min) and the second one after 1 hour (t=60 min). The IC50 value was calculated from the plot of percentage of inhibition vs. inhibitor concentration using non-linear regression analysis software (XLfit, Vers. 4.0; ID Business Solution Ltd., Guildford, Surrey, UK). […]

[2] = individual experiments 1-4, read-out: IC50 value
[3] = mean of 4 experiments, read-out: Mean IC50 value ± SD

T6 sequence (P27487 39-766): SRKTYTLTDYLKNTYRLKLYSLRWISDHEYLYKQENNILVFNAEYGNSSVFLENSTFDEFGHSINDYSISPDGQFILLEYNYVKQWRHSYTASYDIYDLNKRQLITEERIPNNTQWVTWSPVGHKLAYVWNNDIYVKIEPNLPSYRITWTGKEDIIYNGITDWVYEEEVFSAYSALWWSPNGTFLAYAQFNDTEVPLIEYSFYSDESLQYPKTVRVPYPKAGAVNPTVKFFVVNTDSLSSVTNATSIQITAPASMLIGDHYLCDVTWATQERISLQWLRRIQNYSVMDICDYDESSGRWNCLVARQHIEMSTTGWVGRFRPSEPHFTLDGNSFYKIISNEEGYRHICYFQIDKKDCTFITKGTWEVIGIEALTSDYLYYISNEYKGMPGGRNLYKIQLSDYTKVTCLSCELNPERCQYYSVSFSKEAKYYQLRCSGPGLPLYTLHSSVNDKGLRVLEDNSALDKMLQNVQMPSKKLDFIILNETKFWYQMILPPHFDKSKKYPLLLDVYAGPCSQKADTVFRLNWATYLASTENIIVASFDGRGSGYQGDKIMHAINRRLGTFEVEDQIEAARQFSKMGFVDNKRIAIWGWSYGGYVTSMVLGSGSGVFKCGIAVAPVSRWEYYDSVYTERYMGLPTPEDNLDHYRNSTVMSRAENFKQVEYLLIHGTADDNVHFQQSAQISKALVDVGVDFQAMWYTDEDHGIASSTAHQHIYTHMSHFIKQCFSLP
T2 sequence (P27487 39-766 limits assumed): as the sequence (P27487 39-766) above
T5 sequence (Q86TI2 whole entry): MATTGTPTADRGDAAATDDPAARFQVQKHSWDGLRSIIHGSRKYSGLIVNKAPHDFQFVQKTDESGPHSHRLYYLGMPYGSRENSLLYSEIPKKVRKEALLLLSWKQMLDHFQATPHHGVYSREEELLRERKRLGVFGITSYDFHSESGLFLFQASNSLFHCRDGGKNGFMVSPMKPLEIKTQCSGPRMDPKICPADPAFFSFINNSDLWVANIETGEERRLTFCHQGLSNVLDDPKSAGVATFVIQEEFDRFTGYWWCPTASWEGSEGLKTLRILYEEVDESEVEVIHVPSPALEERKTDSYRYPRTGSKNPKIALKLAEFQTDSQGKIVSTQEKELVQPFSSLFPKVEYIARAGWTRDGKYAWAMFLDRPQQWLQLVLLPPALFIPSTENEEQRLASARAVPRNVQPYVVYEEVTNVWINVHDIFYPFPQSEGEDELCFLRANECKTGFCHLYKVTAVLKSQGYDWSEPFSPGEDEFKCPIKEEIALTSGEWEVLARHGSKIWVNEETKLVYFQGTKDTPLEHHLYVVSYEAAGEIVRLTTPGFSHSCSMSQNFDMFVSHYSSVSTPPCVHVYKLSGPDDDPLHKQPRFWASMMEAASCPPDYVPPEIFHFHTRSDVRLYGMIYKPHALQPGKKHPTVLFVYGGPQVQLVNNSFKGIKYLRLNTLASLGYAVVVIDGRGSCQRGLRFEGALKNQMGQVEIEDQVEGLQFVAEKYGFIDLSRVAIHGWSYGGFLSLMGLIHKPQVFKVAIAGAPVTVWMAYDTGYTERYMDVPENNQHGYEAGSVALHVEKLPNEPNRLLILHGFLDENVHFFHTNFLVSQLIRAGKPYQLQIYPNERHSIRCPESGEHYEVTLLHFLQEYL
T3 sequence (Q6V1X1 17-898): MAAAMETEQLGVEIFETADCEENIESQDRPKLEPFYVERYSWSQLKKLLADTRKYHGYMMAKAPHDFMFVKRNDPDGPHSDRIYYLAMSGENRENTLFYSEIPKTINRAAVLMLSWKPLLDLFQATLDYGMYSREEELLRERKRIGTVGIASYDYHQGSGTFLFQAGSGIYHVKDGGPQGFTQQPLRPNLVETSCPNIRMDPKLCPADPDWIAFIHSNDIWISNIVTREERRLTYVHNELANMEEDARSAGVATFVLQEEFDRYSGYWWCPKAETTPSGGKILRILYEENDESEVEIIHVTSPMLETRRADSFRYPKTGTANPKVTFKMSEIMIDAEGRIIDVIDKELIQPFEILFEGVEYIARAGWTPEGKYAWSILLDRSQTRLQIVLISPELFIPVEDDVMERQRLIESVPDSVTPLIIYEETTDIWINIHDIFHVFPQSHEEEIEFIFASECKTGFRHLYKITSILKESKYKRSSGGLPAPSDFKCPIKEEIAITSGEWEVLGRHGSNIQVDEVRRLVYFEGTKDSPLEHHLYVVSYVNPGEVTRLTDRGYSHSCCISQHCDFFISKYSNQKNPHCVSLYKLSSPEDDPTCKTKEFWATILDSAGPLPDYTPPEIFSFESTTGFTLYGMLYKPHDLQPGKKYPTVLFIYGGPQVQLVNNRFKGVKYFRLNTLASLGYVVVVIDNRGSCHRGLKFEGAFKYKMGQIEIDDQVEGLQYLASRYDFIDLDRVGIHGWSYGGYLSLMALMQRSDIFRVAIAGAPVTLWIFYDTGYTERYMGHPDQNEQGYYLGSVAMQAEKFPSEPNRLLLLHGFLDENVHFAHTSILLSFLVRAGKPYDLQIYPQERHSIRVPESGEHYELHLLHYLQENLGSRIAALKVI

Structure (SMILES): N#C[C@@H]1CCCN1C(=O)CNC12CC3CC(C1)CC(O[C@@H]1O[C@H](C(=O)O)[C@@H](O)[C@H](O)[C@H]1O)(C3)C2 [NVP-BQS867-NX-2]
- Hill coefficient (human PEP; individual experiments 1-4): 0.7 and 1.2 and 0.8 and 0.6
- IC50 (human PEP; [2]): 52 µM and 15 µM and 18 µM and 14 µM
- IC50 (human PEP; [3]): 25 ± 18 µM
- IC50 [1, 2]: 0.003 µM and 0.004 µM
- IC50 [1, 3]: 0.004 ± 0.001 µM
- Hill coefficient ([1]; individual experiments 1-4): 1.4 (2×) and 1.2 (2×)
- potency at inhibiting DPP-8 enzyme (human DPP-8; compared with vildagliptin): less potent
- Hill coefficient (human DPP-8; human DPP-8, individual experiments 1-4): 1.2 (3×) and 1.3
- IC50 (human DPP-8; human DPP-8, individual experiments 1-4, read-out: IC50 value): 8.3 µM and 8 µM and 8.1 µM and 7.6 µM
- IC50 (human DPP-8; human DPP-8, mean of 4 experiments, read-out: Mean IC50 value ± SD): 8 ± 0.3 µM
- Hill coefficient (human FAP; individual experiments 1-4): 1.3 and 0.8 (2×) and 0.7
- IC50 (human FAP; [2]): 43 µM and 16 µM and 19 µM
- IC50 (human FAP; [3]): 24 ± 13 µM
- potency at inhibiting DPP-9 enzyme (human DPP-9; compared with vildagliptin): less potent
- Hill coefficient (human DPP-9; human DPP-9, individual experiments 1-4): 1.0 (2×) and 0.9 (2×)
- IC50 (human DPP-9; human DPP-9, individual experiments 1-4, read-out: IC50 value): 0.7 µM and 0.4 µM and 0.6 µM
- IC50 (human DPP-9; human DPP-9, mean of 4 experiments, read-out: Mean IC50 value ± SD): 0.5 ± 0.2 µM
- potency at inhibiting the DPP-4 enzyme (human DPP-IV; compared with vildagliptin): equally potent to vildagliptin
- Hill coefficient (human DPP-IV; human DPP-IV, individual experiments 1-4): 0.7 and 0.9 and 1.3 and 1.1
- IC50 (human DPP-IV; human DPP-IV, individual experiments 1-4, read-out: IC50 value): 0.004 µM and 0.006 µM and 0.007 µM and 0.005 µM
- IC50 (human DPP-IV; human DPP-IV, mean of 4 experiments, read-out: Mean IC50 value ± SD): 0.006 ± 0.001 µM
- IC50 (human DPP-2; [2]): > 300 µM
- IC50 (human DPP-2; [3]): > 90 µM
